# Entries after “also recorded” stand apart in the source; their conditions may differ. Where two headings read alike, the source gives them in different places.
# How the values were obtained:
# pERK in MV4;11 cells = pERK in MV4;11 cells (flow cytometry, Western blot); details: Homo sapiens, MV4-11, 3 h, read-out: Inhibition of pERK
# P-glycoprotein = P-glycoprotein (Homo sapiens, UniProt P08183); experiment: P-glycoprotein substrate status; assay type: in vitro ADME
# pSTAT5 in MV4;11 tumors = experiment: Target modulation in vivo, pSTAT5 in MV4;11 tumors; details: Mus musculus, MV4-11, po
# pERK in MV4;11 tumors = experiment: Target modulation in vivo, pERK in MV4;11 tumors; parameters: species or system SCID-NOD mice; details: 10 mg/kg/d p.o.
# Method: […]. […] For in vivo target modulation analyses, resected tumors were flash frozen, pulverized and stored at −70° C. prior to lysis with 150 mM NaCl, 1.5 mM MgCl2, 50 mM Hepes, pH 7.5, 10% glycerol, 1.0% Triton X-100, 1 mM EGTA, 50 mM NaF, 1 mM Na3VO4, 2 mM Pefabloc (Roche), and complete protease inhibitor cocktail (Roche). Protein content of the lysates was determined using the BCA assay (Bio-Rad, Hercules, Calif.). Western blot analysis for pERK was performed with a mouse antibody to pERK (1:1000, Cell Signaling, Beverly, Mass.) and incubated at 4° C. overnight. Total ERK level was evaluated by re-probing with antibody against total ERK (Cell Signaling). The membranes were then incubated for 1 hour at RT with 1:5000 horseradish peroxidase-conjugated anti-rabbit IgG (Jackson Immunoresearch, West Grove, Pa.). […] FLT3 or STAT5 phosphorylation was measured by probing with an anti-phosphotyrosine antibody (anti-pFLT3 antibody from Cell Signaling, and anti-pSTAT5 antibody from Upstate). Proteins were detected using enhanced chemiluminescence (ECL; Amersham Biosciences, Buckinghamshire, England) and visualized after exposure to Kodak film. Scanning densitometry was performed to quantify band intensities. […]
# […]. […] Tumors that were harvested after selected time points, were homogenized and analyzed for pFLT3 and pSTAT5 levels by IP/Western blot. […]
# PC-3M-luc tumor cells = experiment: PC-3M-luc bone metastatic prostate model; assay type: in vivo, nude mice
# Method: Cell lines. Metastatic human prostate cell line PC-3M expressing null p53, del PTEN, VEGFR, FGFR and stably transfected with a construct of luciferase were obtained under a licensing agreement with Xenogen.
# In vivo efficacy studies. […]. Animals received sterile rodent chow and water ad libitum and were housed in sterile filter-top cages with 12 hour light/dark cycles. All experiments were conducted under the guidelines of the Association for Assessment and Accreditation of Laboratory Animal Care International. PC-3M luc bone metastatic model. Human prostate cancer cell line PC-3M-luc cells (1.5×10^6 cells) stably transfected with a construct of luciferase were injected via intracardiac injections. Bioluminescent imaging (Xenogen's IVIS® imaging system) was used to non-invasively monitor the in vivo growth and metastasis of PC-3M-luc tumors after cell inoculation. Nearly all PC-3M-luc tumor cell-injected animals developed prostate lesions, which were mainly localized in the femur, and mandibles. […]. Mice were monitored daily and were euthanized when moribund.
# Immunohistochemistry. Bone (femurs, mandible) samples were decalcified (Protocol™, Fisher Diagnostics, Middletown, Va.). Paraffin blocks were sectioned to […] thickness and placed on positively charged glass slides. Tissues were stained with hematoxylin and eosin for general tissue morphology and identification of PC-3M cells in bone.
# Nude mice were inoculated with PC-3M-Luc cells intracardiacally with 1.5×10^6 cells. […]. The PC-3M-luc cell lines were purchased from Xenogen and the mice were imaged using Xenogen's IVIS® imaging system.
# [1] = system: other kinases in the PI3K/Akt and MAPK(K) pathways; experiment: Selectivity test against other kinases; assay type: biochemical; details: negligible activity
# Chain of P-glycoprotein (P08183 whole entry): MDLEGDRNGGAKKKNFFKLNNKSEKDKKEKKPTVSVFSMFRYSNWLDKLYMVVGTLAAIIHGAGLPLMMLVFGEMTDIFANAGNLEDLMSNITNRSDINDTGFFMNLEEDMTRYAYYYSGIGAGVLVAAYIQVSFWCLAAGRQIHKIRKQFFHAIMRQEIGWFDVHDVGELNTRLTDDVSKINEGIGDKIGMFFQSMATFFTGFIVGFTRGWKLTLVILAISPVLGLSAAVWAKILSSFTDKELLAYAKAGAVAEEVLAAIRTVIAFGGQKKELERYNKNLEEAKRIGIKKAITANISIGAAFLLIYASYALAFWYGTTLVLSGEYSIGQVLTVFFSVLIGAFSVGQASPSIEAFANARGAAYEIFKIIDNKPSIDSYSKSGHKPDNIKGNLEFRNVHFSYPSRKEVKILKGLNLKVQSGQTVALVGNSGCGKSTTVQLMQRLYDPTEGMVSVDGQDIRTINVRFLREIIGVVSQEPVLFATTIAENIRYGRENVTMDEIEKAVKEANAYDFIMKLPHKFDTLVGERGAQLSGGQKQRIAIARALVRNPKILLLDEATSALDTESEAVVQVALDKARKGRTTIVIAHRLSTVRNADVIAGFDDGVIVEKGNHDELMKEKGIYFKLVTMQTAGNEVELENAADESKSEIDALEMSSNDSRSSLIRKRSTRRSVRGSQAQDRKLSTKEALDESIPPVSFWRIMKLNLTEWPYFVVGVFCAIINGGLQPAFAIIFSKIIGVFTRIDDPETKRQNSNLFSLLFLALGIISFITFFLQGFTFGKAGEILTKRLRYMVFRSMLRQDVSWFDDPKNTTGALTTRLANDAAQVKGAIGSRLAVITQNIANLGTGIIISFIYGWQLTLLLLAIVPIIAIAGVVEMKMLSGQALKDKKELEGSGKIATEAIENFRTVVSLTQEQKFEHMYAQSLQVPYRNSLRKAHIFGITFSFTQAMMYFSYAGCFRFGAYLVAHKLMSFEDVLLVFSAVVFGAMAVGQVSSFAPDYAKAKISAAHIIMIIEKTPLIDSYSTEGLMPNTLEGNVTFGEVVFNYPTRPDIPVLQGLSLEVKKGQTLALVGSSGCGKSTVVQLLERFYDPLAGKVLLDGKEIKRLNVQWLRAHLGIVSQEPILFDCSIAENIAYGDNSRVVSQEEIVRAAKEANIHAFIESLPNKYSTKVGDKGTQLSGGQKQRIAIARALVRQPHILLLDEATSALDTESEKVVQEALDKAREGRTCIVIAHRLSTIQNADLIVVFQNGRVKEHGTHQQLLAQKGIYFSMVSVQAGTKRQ
compound,measurement,setting,value
"CN1CCN(c2ccc3nc(-c4c(N)c5c(F)cccc5[nH]c4=O)[nH]c3c2)CC1 [Compound 1, 4-Amino-5-fluoro-3-[6-(4-methylpiperazin-1-yl)-1H-benzimidazol-2-yl]quinolin-2(1H)-one]",inhibition at 0.1 µM,pERK in MV4;11 cells,> 50%
same,P-GP substrate status,P-glycoprotein,not a P-GP substrate
same,inhibition at 10 mg/kg,"pSTAT5 in MV4;11 tumors; 8 h, read-out: Inhibition of STAT5 phosphorylation in tumors",~90%
same,inhibition at 10 mg/kg,"pSTAT5 in MV4;11 tumors; 24 h, read-out: Inhibition of STAT5 phosphorylation in tumors",~85%
same,inhibition at 10 mg/kg,"pSTAT5 in MV4;11 tumors; 48 h, read-out: Inhibition of p-STAT5 in tumors",~60%
same,pERK levels in tumors,pERK in MV4;11 tumors,Decreases in pERK levels
same,Photon counts / metastatic growth of PC-3M-luc cells,"PC-3M-luc tumor cells; 50 mg/kg p.o. daily, vs. vehicle",trend to inhibit metastatic growth; also recorded: trend of decreased photon count; also recorded: trend to inhibit PC-3M-luc photon counts
same,Efficacy compared with taxol (15 mg/kg),PC-3M-luc tumor cells; 50 mg/kg/d p.o.,more effective than taxol treatment
same,IC50,[1],> 10 µM

# — patent publication US20100173873A1, “TREATMENT OF METASTASIZED TUMORS” (Novartis Vaccines and Diagnostics, Inc., priority 2005, published 2010)
